Measured values as given in patent US7354917B2, “Oxabispidine compounds and their use in the treatment of cardiac arrhythmias” (AstraZeneca AB, priority 2004, dated 2008).
Structures can show the parent of a compound that is named as a salt.

Target: T1, HERG channel (Homo sapiens, UniProt Q12809)
T1 construct: expressed in transfected cells
Test: Test B: Rb+-efflux assay for detection of HERG channel blockers
Type: cell-based
Settings: depolarisation-induced Rb+-efflux from Chinese hamster ovary cells stably expressing the HERG-channel; read-out: pIC50 for HERG channel blockade (converted)
Experimental: Rb^+-Efflux Assay for Detection of HERG Channel Blockers
The human ether-a-go-go related gene (HERG) encodes the voltage-gated K^+ channel underlying the cardiac rapid delayed rectifier current IKr. The IC50 value for HERG channel blockade was determined using a high throughput functional assay based on depolarisation-induced Rb^+-efflux from Chinese hamster ovary cells stably expressing the HERG-channel.
Cells were grown in Ham F12 (Life Technologies 31765-027) supplemented with 10% FBS and 0.6 mg/mL hygromycin B and were routinely passaged twice-weekly. For experimental studies, cells were plated at a density of 15,000 cells/well in Falcon, 384-well tissue culture-treated black-walled clear-bottomed plates and were thereafter incubated overnight at 37° C. in a cell culture incubator.
Following incubating overnight, cell plates were washed and a Rb^+-Load buffer (a physiological buffer containing Rb^+) was added. Cell plates were then incubated for 3 hours and were thereafter washed. Following this wash, the test compounds were added. The cell plates were then incubated for another 10 minutes and, following this incubation period, external K^+ concentration was increased in order to depolarize the cells and activate HERG channels. After a ten minute exposure period to the increased K^+ concentration, supernatants were transferred to new microplates for subsequent determination of Rb^+ content, using Atomic Absorption Spectrometry analysis.
The basal Rb^+ efflux (content of Rb^+ (mg/L) in supernatants of wells receiving only wash buffer) was defined as 100% inhibition and the stimulated Rb^+efflux (content of Rb^+ (mg/L) in supernatants of wells exposed only to increased external potassium concentration) was defined as 0% inhibition.
Compound activity was expressed as: […]
A: Rb^+ content in wells receiving test compound+increased external K^+.
C: Stimulated Rb^+ efflux.

T1 sequence (Q12809 whole entry): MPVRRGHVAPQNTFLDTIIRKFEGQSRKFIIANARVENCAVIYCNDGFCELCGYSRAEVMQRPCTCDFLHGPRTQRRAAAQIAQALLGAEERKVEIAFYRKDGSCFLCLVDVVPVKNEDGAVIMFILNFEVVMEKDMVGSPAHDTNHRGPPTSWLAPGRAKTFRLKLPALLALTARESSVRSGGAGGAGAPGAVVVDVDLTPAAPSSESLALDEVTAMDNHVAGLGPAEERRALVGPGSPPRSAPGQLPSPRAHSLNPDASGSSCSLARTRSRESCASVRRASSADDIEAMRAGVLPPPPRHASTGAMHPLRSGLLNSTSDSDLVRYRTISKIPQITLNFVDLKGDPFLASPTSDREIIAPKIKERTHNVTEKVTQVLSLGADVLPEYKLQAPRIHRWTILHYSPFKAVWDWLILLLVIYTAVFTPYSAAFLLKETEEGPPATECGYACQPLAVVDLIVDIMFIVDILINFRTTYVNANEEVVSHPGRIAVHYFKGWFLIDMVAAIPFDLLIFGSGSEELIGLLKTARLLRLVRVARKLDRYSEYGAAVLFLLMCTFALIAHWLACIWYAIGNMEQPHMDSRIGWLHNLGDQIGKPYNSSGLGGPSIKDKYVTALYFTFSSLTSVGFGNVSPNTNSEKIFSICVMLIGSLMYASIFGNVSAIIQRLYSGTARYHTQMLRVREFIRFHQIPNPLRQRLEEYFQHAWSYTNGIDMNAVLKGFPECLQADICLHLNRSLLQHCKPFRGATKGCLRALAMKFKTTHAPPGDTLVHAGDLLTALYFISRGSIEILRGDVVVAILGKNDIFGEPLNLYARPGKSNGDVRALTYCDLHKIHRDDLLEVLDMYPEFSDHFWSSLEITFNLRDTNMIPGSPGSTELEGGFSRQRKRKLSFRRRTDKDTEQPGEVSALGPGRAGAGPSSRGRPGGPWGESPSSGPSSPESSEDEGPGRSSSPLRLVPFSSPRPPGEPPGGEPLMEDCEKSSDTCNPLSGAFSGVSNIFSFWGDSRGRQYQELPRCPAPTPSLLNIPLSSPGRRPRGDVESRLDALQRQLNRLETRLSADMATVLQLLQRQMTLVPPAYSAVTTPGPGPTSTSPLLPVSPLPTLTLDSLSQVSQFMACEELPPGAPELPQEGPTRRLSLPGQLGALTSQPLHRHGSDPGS

Row | SMILES | IC50 [nM]
1 | CS(=O)(=O)N(CCOc1ccc(C#N)cc1)CCN1CC2CN(Cc3ccc(F)cc3)CC(C1)O2 [Example 3, N-[2-(4-Cyanophenoxy)ethyl]-N-{2-[7-(4-fluorobenzyl)-9-oxa-3,7-diaza-bicyclo[3.3.1]non-3-yl]ethyl}methanesulfonamide] | 1580
2 | CS(=O)(=O)N(CCOc1ccc(C#N)cc1)CCN1CC2CN(Cc3ccccc3)CC(C1)O2 [Example 2, N-[2-(7-Benzyl-9-oxa-3,7-diazabicyclo[3.3.1]non-3-yl)ethyl]-N-[2-(4-cyanophenoxy)ethyl]methanesulfonamide, tartaric acid salt] | 2820
3 | CN(C)C(=O)N(CCOc1ccc(C#N)cc1)CCN1CC2CN(Cc3ccc(OC(F)F)cc3)CC(C1)O2 [9 (xlvi), N-[2-(4-cyanophenoxy)ethyl]-N-(2-{7-[4-(difluoromethoxy)-benzyl]-9-oxa-3,7-diazabicyclo[3.3.1]non-3-yl}ethyl)-N′,N′-dimethylurea] | 4170
